Experimental data as given in article PMC10799935, “Discovery of a peripheral 5HT2A antagonist as a clinical candidate for metabolic dysfunction-associated steatohepatitis” (Nature Communications, 2024).
“And” between values parts separate entries of the source, which are not always exact repeats. Equal values may be shown once.

Tests used:
[1] = Hepatocyte stability test, rat; type: in vitro ADME; conditions: male, Sprague Dawley, cryopreserved hepatocytes, pH 7.4, read-out: Hepatocyte stability (% remaining after 3 h)
Procedure: Hepatocyte incubations for the test compound (10 μM final concentration, n = 2 per each time point) were carried out in mouse, rat, dog, monkey and human cryopreserved hepatocytes, resuspended at a density of 0.5 million cells/ml of modified Krebs-Henseleit buffer (KHB). The information regarding the hepatocytes used in the experiment is as follows: liverPool® 10-donor mixed gender human (BioIVT, Cat.No. X008001, lot EAV), male cynomolgus monkey (BioIVT, Cat.No. M00305, lot COJ), male Beagle dog (BioIVT, Cat.No. M00205, lot USY), male Sprague Dawley rat (BioIVT, Cat.No. M00005, lot TQE) and male CD1 mouse (BioIVT, Cat.No.005052, lot LFF). In addition, the compound was also incubated with blank KHB. The final concentration of solvent (DMSO) was 0.1% of the final volume. The incubations were performed for 3 hours at 37°C and pH 7.4. Reactions were terminated at 0 and 180 minutes by the addition of 3 volumes of stop solution (acetonitrile/methanol (2:1, v/v) containing internal standard–diclofenac at 100 ng/ml). Samples (compound spiked buffer and compound spiked hepatocytes, as well as blank samples, i.e. hepatocytes with the same DMSO%) were then centrifuged and aliquots were transferred to 96-deep micronic tubes and frozen at -80 °C until LC-MS/MS analysis. […]

5HT3 = 5HT3 (Homo sapiens, UniProt P46098); experiment: 5HT subtype selectivity: 5HT3; type: cell-based; conditions: concentration not given
Procedure: The derivatives were evaluated at a concentration of 1 μM for their antagonist activity on the 5HT2A receptor (Tables 1–3)[33],[34]. Human 5HT2A stably transfected HEK293 cells (a type of cell derived from kidney embryos)[20] were seeded in a 96-well plate (Costar; 3603) at a density of 9 × 10^4 in 100 μL of minimum essential medium (Welgene; LM007-86) containing 10% dialyzed fetal bovine serum (Gibco; 30067–334) and 1% penicillin/streptomycin (Gibco; 15140-122) and kept in a 37 °C incubator for 24 h. The cells were stained with 100 μL of cytosolic calcium dye using the FLIPR calcium 6 assay solution (Molecular devices, #R8190) supplemented with 2.5 mM probenecid (Sigma; P8761) and incubated for 1 h at 37 °C. After 1 h, the designated amount of the compound was treated in each well and incubated for another 1 h at 37 °C. Then, the cells were loaded in a Flexstation 3 microplate reader (Molecular Devices; FlexStaion) and 50 μL of 5 μM 5HT (serotonin hydrochloride, Sigma; H9523) was injected from a source plate (Nunc 96-well polystyrene conical bottom MicroWell Plate, Thermo; 249662) and the fluorescence intensity (Ex/Em-485nm/ 525 nm) was measured. (Supplementary Fig. 5) For determining the IC50 values of other 5HT subtypes, an Inhibition assay was performed by Eurofins Cerep (Study ID: FR095-0014987, FR095-0016438). […]

[2] = tested on: CDAHFD-fed C57BL/6 J mice; experiment: CDAHFD mice: Sirius red staining (fibrotic area);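 on Sirius red staining (fibrotic area), individual mouse: percent of liver section area positive for Sirius red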; type: in vivo, mouse; parameters: Sirius red staining (fibrotic area), individual mouse / Sirius red staining (fibrotic area), Average: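 percent of liver section area positive for Sirius red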; conditions: for Sirius red staining (fibrotic area), Average / Sirius red staining (fibrotic area), individual mouse: CDAHFD mice; for Sirius red staining (fibrotic area), Average: group average n=5, CDAHFD+Vehicle 5.533, Vehicle 0.905; for Sirius red staining (fibrotic area), individual mouse: individual animals No. 1-5 (Fig.4e)
Text: C57BL/6 J male mice were purchased from the Japan SLC. Inc (Hamamatsu, Japan). Mice (5 weeks old) were fed Teklad Certitied Irradiated Global 18% protein rodent diet purchased from Dooyeol Biotech Co. Ltd (Seoul, South Korea) during the acclimation period. The liver fibrosis/inflammation-induced groups were CDAHFD-fed (A06071302, Research diet). […] All animal experiments complied with the relevant ethical regulations.
Mouse liver tissues were fixed in 4% formalin solution (Sigma–Aldrich, St. Louis, MO, USA) and embedded in paraffin. 4-μm-thick liver sections were deparaffinized in xylene, and rehydrated through descending grades of ethanol. To evaluate liver fibrosis, sections were stained with Sirius red solution and subjected to immunohistochemical staining. Tissue sections, after deparaffinization, underwent a 16-hour incubation in a solution containing 0.1% Direct Red 80 (365548, Sigma-Aldrich) dissolved in Picric acid (P-201, Spectrum Chemical, CA, USA) for Sirius red staining. The sections were briefly immersed in a 0.01 N HCl solution (1129, Ducksan, Republic of Korea) for 2 min. and then rinsed with distilled water for destaining. Subsequently, the sections underwent dehydration through […] grades of ethanol. Immunohistochemical staining was performed using the Polyview Plus HRP-DAB (anti-Rabbit) Kit (ENZ-KIT159-0150, ENZO Life Science, NY, USA) following the manufacturers’ instructions. Deparaffinized sections were boiled in IHC-TekTM Epitope Retrieval solution (IW-1100, IHCWORLD, MD, USA) for 45 min., cooled for 1 h, incubated in a 3% H2O2 solution (69355-0350, JUNSEI, Japan) for 15 min., washed, and then incubated overnight with primary antibodies (α-SMA, ab5694, Abcam, 1:500 dilution; TNF-α, ab6671, Abcam, 1:100 dilution and IL-1β, ab9722, Abcam, 1:100 dilution). Subsequently, the sections were treated with Polyview Plus HRP for 2 h and developed with DAB chromogen/substrate. Stained […] sections were confirmed by light microscopy (Olympus BX53 upright microscope, Tokyo, Japan). The degree of hepatic fibrosis and immunohistochemical staining was quantified by morphometric analysis of stained liver sections using NIH ImageJ software.

5HT3, sequence (P46098 24-478): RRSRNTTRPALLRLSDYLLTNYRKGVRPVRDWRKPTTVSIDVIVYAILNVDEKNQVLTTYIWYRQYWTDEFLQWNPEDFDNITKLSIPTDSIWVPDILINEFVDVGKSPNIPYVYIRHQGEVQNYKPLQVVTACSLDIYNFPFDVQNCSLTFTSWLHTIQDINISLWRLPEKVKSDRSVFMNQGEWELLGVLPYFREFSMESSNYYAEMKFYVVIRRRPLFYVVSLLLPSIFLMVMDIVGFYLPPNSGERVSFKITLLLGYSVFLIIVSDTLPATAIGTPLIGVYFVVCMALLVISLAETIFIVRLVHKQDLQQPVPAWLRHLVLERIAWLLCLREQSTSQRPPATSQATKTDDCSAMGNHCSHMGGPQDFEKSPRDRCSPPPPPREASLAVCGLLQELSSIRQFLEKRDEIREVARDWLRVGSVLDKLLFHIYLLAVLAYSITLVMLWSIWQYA

Question: Which results are given for `Cc1nc2n(c(=O)c1CCN1CCC(=C3c4ccc(Cl)cc4CCc4cccnc43)CC1)CCCC2O` (stereo not shown) [Compound 11c]?
Answer: remaining at 3 h, 10 μM [1]: 68.9%; Selectivity 3: % inhibition (5HT3): -1%; Sirius red staining (fibrotic area), Average ([2]; 11c 5 mpk): 3.015; Sirius red staining (fibrotic area), individual mouse ([2]; 11c 5 mpk): 3.008 and 1.579 and 3.604 and 3.231 and 3.651; Sirius red staining (fibrotic area), Average ([2]; 11c 10mpk): 3.818; Sirius red staining (fibrotic area), individual mouse ([2]; 11c 10mpk): 2.883 and 3.981 and 4.409 and 4.507 and 3.312; collagen accumulation in liver tissue (Sirius red staining) ([2]; CDAHFD-fed 11c vs CDAHFD-fed vehicle group): significant decrease
